Data: ChEMBL document CHEMBL1150922, “A new photosystem II electron transfer inhibitor from Sorghum bicolor” (J Nat Prod, 1998)
Active and inactive are the calls of the source. No cut-off for these calls is given here.

Key:
[1] = Inhibition of photosystem 2 in spinach thylakoid membranes assessed as oxygen evolution; type: cell membranes, Spinacia oleracea; settings: read-out: I50
Spinacia oleracea = test: Reduction in light-induced chlorophyll fluorescence half-life in spinach thylakoids membrane at 0.3 to 1 uM; type: functional, cell membranes
Lactuca sativa [2] = test: Phytotoxicity against lettuce seedlings assessed as inhibition of seed germination at >0.3 mM after 4 days; type: functional, organism-based
Lactuca sativa [3] = test: Phytotoxicity against lettuce seedlings assessed as inhibition of seed germination at 0.1 mM after 4 days; type: functional, organism-based

For `C=CC/C=C\C/C=C\CCCCCCCC1=C(OC)C(=O)C=C(OC)C1=O`, the IC50 [1] was 280 nM, the Activity (Spinacia oleracea) was “Active” and the Activity (Lactuca sativa [2]) was “Active”. The Activity (Lactuca sativa [3]) was “inactive”.
In the case of `C=CC/C=C\C/C=C\CCCCCCCC1=C(O)C(=O)C=C(OCC)C1=O`, the IC50 [1] is reported as 1070 nM, the Activity (Spinacia oleracea) is reported as “Active” and the Activity (Lactuca sativa [2]) is reported as “Active”. The Activity (Lactuca sativa [3]) was “inactive”.
For `CCNc1nc(Cl)nc(NC(C)C)n1` [ATRAZINE], the IC50 [1] was 930 nM, the Activity (Spinacia oleracea) was “Active” and the Activity (Lactuca sativa [2]) was “Active”. For the same compound, the Activity (Lactuca sativa [3]) was “inactive”.
With `C=CC/C=C\C/C=C\CCCCCCCC1=C(O)C(=O)C=C(OC)C1=O` [SORGOLEONE] the IC50 [1] was 100 nM, the Activity (Spinacia oleracea) was “Active” and the Activity (Lactuca sativa [2]) was “Active”. For the same compound, the Activity (Lactuca sativa [3]) was “inactive”.
